What was measured:
A549 tumor = assay: In vivo real-time imaging of NQO1 in A549 xenografts with NIR-ASM; set-up: species or system nude mice
Method: In vivo real-time imaging of NQO1 in xenografts using NIR-ASM. In vivo real-time imaging offers a powerful tool for accurately diagnosing disease and suspicious lesions with valuable spatiotemporal precision. […] Tumor xenografts were established by implanting exponentially growing lung cancer cells (A549) subcutaneously into nude mice. When tumor growth reached the log phase, NIR-ASM (5 mg/kg in PEG:H2O:EtOH (6:3:1)) was given intravenously and subjected to whole-body fluorescence imaging using an In Vivo Imager (IVIS). […] No signal was apparent in other organs of the animal. To confirm the tumor-selective targeting ability of NIR-ASM, the host organs and tumor from the mice administered with NIR-ASM were harvested and their fluorescence was analyzed ex vivo using the same IVIS. […] Furthermore, the lysates from the tumor and various organs were electrophoresed and western blotted using the NQO1 antibody. NQO1 protein at detectable levels was seen only in the tumor lysate and not in other tissues, thus, reinforcing the specificity of in-vivo imaging (FIG. 14C).
In vivo bioimaging. […] All animals were monitored for activity, physical condition, body weight, and tumor growth. […] Fluorescence represented in log values of radiance is photons per second per square centimeter per steradian.

A549, H460 cells = assay: Fluorescence microscopy of NIR-ASM in NQO1 expressing cancer cells; assay type: cell-based, human
Method: Detection of NQO1 in live cells. Inspired by the excellent biocompatibility, the inventors investigated its performance in both NQO1 expressing cancer cells (A549, H460) and NQO1 non-expressing normal cells (IMR90, HUVEC). All cells were incubated with NIR-ASM (10 μM) for 60 min, washed with PBS and were imaged under a confocal microscope after counterstaining the nuclei with Hoechst 33342 (FIG. 12A). […] The higher expression of NQO1 protein in A549 and H460 cells and its absence in normal cells, IMR90 and HUVEC as found with western blot analysis correlated with the probe reactivity in cells (FIG. 12B). […] Cell sorting using flow cytometry is a well-established technology in clinical diagnostics and biomedical research. To assess the applicability of the NIR-ASM to rapidly detect and quantify in both cancer and normal cells based on NQO1 expression, the probe was incubated with cell suspensions for 60 min, and about 1×10^4 cells were analyzed on a flow cytometer.
Fluorescence imaging. Both cancer and normal cells were seeded into 6-well plates and cultured overnight in respective media at 37° C. Cells were treated with 10 μM NIR-ASM and incubated at 37° C. for 60 min. They were then treated with nuclear stain Hoechst 33342 for 5 min. Finally, the medium was replaced with PBS and the live cells were imaged using a multiphoton confocal fluorescence microscope (λex/em=488/644 nm). […]

[1] = tested on: NQO1-negative MDA-MB-231 cells; assay: NIR-ASM in NQO1-negative control MDA-MB-231 cells; assay type: cell-based, human; details: microscopy and flow cytometry
Method: Chemical and genetic approaches confirm the specificity of NIR-ASM for NQO1 in live tumor cells. A fluorescence probe with high sensitivity, simple operation, and excellent specificity will be an asset for the detection of NQO1 in situ. To assess the substrate selectivity of NIR-ASM for NQO1, both A549 and H460 cells were pretreated with 100 nM of NQO1 inhibitor ES936 for 6 h, before incubating with 10 μM NIR-ASM. […] The effect of ES936 on endogenous NQO1 activity and subsequent reactivity with NIR-ASM was also determined by flow cytometry. […] The presence of NQO1 protein in the transfected MDA-MB-231 cells and its absence in the untransfected control was confirmed by immunoblotting (FIG. 13E). Subsequently, the NQO1-negative and positive MDA-MB-231 cell lines were incubated with NIR-ASM and analyzed by fluorescence microscopy and flow cytometry for activation of the probe.
Fluorescence imaging. Both cancer and normal cells were seeded into 6-well plates and cultured overnight in respective media at 37° C. […] Finally, the medium was replaced with PBS and the live cells were imaged using a multiphoton confocal fluorescence microscope (λex/em=488/644 nm). […]
Flow cytometry analysis. The endogenous NQO1 activity of cancer cells and normal cells was determined by flow cytometry after NIR-ASM exposure. […] About 1×10^4 cells were analyzed by flow cytometry (λex=488 nm).

NQO1 = NQO1 (Homo sapiens, UniProt P15559); assay: Selectivity of NIR-ASM for NQO1 over other enzymes/substrates; assay type: biochemical; set-up: purchased Sigma-Aldrich D1515; details: 30 min; GSH, ALDH1A1, GGT, GPx, APE1, CBS, CTSL, GST-pi, NADH, NTR
NQO1, sequence (P15559 whole entry): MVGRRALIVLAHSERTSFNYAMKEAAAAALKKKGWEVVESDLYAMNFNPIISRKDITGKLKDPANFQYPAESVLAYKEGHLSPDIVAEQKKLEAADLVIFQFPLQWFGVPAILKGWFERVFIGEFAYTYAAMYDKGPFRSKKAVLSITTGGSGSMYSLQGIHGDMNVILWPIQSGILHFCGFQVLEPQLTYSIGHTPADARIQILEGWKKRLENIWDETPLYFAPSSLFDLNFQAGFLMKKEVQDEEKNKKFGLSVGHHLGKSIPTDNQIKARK
Excerpt: Selectivity of NIR-ASM. The selectivity of NIR-ASM probe was studied by examining its reactivity towards various biomolecules and antioxidant enzymes such as the glutathione, aldehyde dehydrogenase 1, gamma-glutamyl transferase, glutathione peroxidase, apurinic/apyrimidinic endonuclease, cystathionine-β-synthase, cathepsin L, glutathione S-transferase, NADH alone and the combination of nitroreductase and NQO1.
Determination of NIR-ASM specificity towards NQO1. The specificity towards NQO1 was investigated by incubating NIR-ASM (10 μm) with various biologically relevant analytes such as glutathione (GSH, 1 mM), aldehyde dehydrogenase 1 (ALDH1A1, 2.5 μg/mL), gamma-glutamyl transferase (GGT, 10 U), glutathione peroxidase (GPx, 10 U), apurinic/apyrimidinic endonuclease (APE1, 10 U), cystathionine-β-synthase (CBS, 2 μg/mL), cathepsin L (CTSL, 2 μg/mL), glutathione S-transferase (GST-pi, 2 μg/mL), NADH (100 μM) alone and the combination of nitroreductase (NTR, 2 μg/mL) and NQO1 (2 μg/mL) for 30 min. Fluorescence spectra were analyzed to determine NIR-ASM specificity against NQO1.

cell permeability (A549, H460 cells; inferred from intracellular activation): confirm the cell permeability
selectivity for NQO1 over the other enzymes/substrates tested (NQO1): high selectivity
Compound: CC1=C(C)C(=O)C(C(C)(C)CC(=O)Nc2ccc(/C=C/C3=CC(=C(C#N)C#N)CC(C)(C)C3)cc2)=C(C)C1=O [NIR-ASM, (E)-N-(4-(2-(3-(dicyanomethylene)-5,5-dimethylcyclohex-1-en-1-yl)vinyl)phenyl)-3-methyl-3-(2,4,5-trimethyl-3,6-dioxocyclohexa-1,4-dien-1-yl)butanamide]
time at which tumor fluorescence signal reached the plateau (A549 tumor; 5 mg/kg intravenously): 30 min
ex vivo fluorescence in tumor and organs (A549 tumor; organs harvested after NIR-ASM): observed only in the tumor and not in any other major organs
fluorescence signal in NQO1 expressing cancer cells (A549, H460 cells; 10 μM, 60 min): bright NIR fluorescence signal
fluorescence in control (NQO1-negative) cells [1]: No fluorescence

— US11957766B2, “HNQO1-activatable fluorescent probe for imaging cancer cells in-vitro and in-vivo” (Texas Tech University System, priority 2019, dated 2024)
